Source: patent US11173207B2 (priority 2016, dated 2021)

Tested on: Splenocytes
Parameters: species or system CD-1 mice
Settings: mouse, in vivo

Substance: QS21
- cytokine profile: strong and balanced Th1 plus Th2 cytokine profile
